Structures are written as SMILES.

Series [1] deals with Venturia inaequalis. Nature of the series: Venturia test (apple) / protective. Format: in vivo. The following applies: 240 h, active compound concentration 100 ppm, evaluation 10 days after inoculation, read-out: efficacy. How it is done: After the spray coating has dried on, the plants are inoculated with an aqueous conidia suspension of the apple scab pathogen Venturia inaequalis and then remain for 1 day in an incubation cabinet at about 20° C. and 100% relative atmospheric humidity.

Series [2] concerns Alternaria solani. In words: Alternaria test (tomato) / protective. The class given is in vivo. The following applies: 72 h, active compound concentration 100 ppm, evaluation 3 days after inoculation, read-out: efficacy. How it is done: The plants are then placed in an incubation cabinet at about 20° C. and 100% relative atmospheric humidity.
Series [3] has as its system Sphaerotheca fuliginea. Nature of the series: Sphaerotheca test (cucumber) / protective. Format: in vivo. The following applies: Podosphaera fuliginea, 168 h, active compound concentration 500 ppm, evaluation 7 days after inoculation, read-out: efficacy. Here is the method: The plants are subsequently placed in a greenhouse at 70% relative atmospheric humidity and a temperature of 23° C.

The subject of series [4] is Leptosphaeria nodorum. Nature of the series: Leptosphaeria nodorum test (wheat) / protective. Format: in vivo. The following applies: Parastagonospora nodorum, active compound concentration 500 ppm, evaluation 7-9 days after inoculation, read-out: efficacy. Here is the method:
Thereafter, the plants are placed in a greenhouse at 90% relative atmospheric humidity and a temperature of 22° C.

The test system of series [5] is Pyrenophora teres. In words: Pyrenophora teres test (barley) / protective. The class given is in vivo. To be noted: 192 h, active compound concentration 500 ppm, evaluation 8 days after inoculation, read-out: efficacy. Here is the method:
After the spray coating has dried on, the plants are sprayed with a spore suspension of Pyrenophora teres. The plants remain in an incubation cabinet for 48 hours at 20° C. and 100% relative atmospheric humidity.

Series [6] can be described thus: logP by LC-MS on reversed-phase columns (C 18), method [b], acidic range pH 2.7. Format: physicochemical. The following applies: pH 2.7, log p. Here is the method: (§1) The logP values were determined in accordance with EEC Directive 79/831 Annex V.A8 by HPLC (High Performance Liquid Chromatography) on reversed-phase columns (C 18), using the methods below:
[b] The LC-MS determination in the acidic range is carried out at pH 2.7 using the mobile phases 0.1% aqueous formic acid and acetonitrile (contains 0.1% formic acid), linear gradient from 10% acetonitrile to 95% acetonitrile.

Series [7] in a line: logP by LC-MS on reversed-phase columns (C 18), method [c], neutral range pH 7.8. To be noted: pH 7.8. Format: physicochemical. How it is done: as §1
[c] The LC-MS determination in the neutral range is carried out at pH 7.8 using the mobile phases 0.001 molar aqueous ammonium bicarbonate solution and acetonitrile, linear gradient from 10% acetonitrile to 95% acetonitrile.

The subject of series [8] is Pyricularia oryzae. In words: whole plant or invertebrate. The following applies: 120 h, read-out: efficacy. Format: in vivo.
For series [9], the system named is Cochliobolus miyabeanus. In words: Cochliobolus test (rice) / protective. The following applies: Bipolaris oryzae, in Oryza sativa, 96 h, read-out: efficacy.
Procedure: Cochliobolus Test (Rice)/Protective • Solvent: 28.5 parts by weight of acetone • Emulsifier: 1.5 parts by weight of alkylaryl polyglycol ether
1 day after the treatment, the plants are inoculated with an aqueous spore suspension of Cochliobolus miyabeanus. The plants are then placed in a greenhouse at 100% relative atmospheric humidity and 25° C.
Evaluation is carried out 4 days after the inoculation.
For series [10], the system named is Rhizoctonia solani. In words: Rhizoctonia test (rice) / protective. Format: in vivo. To be noted: 96 h, active compound concentration 250 ppm, evaluation 4 days after inoculation, read-out: efficacy.

Usually chromatographic logP stands for a lipophilicity value derived from retention on a column. Consider `CCC(C)[S+]([O-])C(C)c1cccc(Nc2ncc(Cl)c(NC3CC3)n2)c1` (stereo not drawn) [Example 164], for which the pest or weed control at 100 ppm in series [1] and in series [2] was not below 70% each time. The pest or weed control at 500 ppm in series [3], in [4] and in series [5] was not below 70% in each case. For the same compound, the results for the chromatographic logP in [6] and in [7] were 2 and 2.79, respectively.

`CCS(=O)(=O)C(C)c1cccc(Nc2ncc(Cl)c(NC3CC3)n2)c1` (stereo not drawn) [Example 75]: the pest or weed control at 500 ppm in [3], in series [4] and in [5] was not below 70% in each case. In addition, the pest or weed control at 250 ppm in [8] and in series [9] was not below 80% throughout. Also, the chromatographic logP in [6] was determined as 2.54.

In the case of `CCS(=O)(=O)c1cccc(Nc2ncc(Cl)c(NC3CC3)n2)c1` [Example 113], the pest or weed control at 100 ppm in [1] and in series [2] was not below 70% each time. For the same compound, the pest or weed control at 500 ppm in [3], in series [4] and in series [5] was not below 70% in each case. The chromatographic logP in series [6] turned out to be 1.87; in series [7] it was 2.48.

With `COCc1cccc(Nc2ncc(Br)c(NC(C)C)n2)c1` [Example 70], the pest or weed control at 500 ppm in series [4] was not below 70%. In addition, the pest or weed control at 250 ppm in series [8], in series [10] and in series [9] was not below 80% in each case. Also, in [6], the chromatographic logP amounted to 1.92.

Turning to `CCNc1nc(Nc2cccc(COC)c2)ncc1Cl` [Example 95], the pest or weed control at 500 ppm in series [4] is not below 70%. The pest or weed control at 250 ppm in series [8] and in series [9] was not below 80% throughout. Also, the chromatographic logP in series [6] stood at 1.47; in [7] it was 2.84.

In the case of `COCCCSc1cccc(Nc2ncc(Cl)c(NC3CC3)n2)c1` [Example 201], the pest or weed control at 500 ppm in series [4] was not below 70%. For the same compound, the pest or weed control at 250 ppm in series [8], in series [10] and in series [9] was not below 80% each time. In addition, the chromatographic logP in series [6] was determined as 2.59; in series [7], 3.77.

Turning to `CCC(C)S(=O)(=O)C(C)c1cccc(Nc2ncc(Cl)c(NC3CC3)n2)c1` (stereo not drawn) [Example 163], the pest or weed control at 100 ppm in series [1] and in series [2] was not below 70% in each case. The pest or weed control at 500 ppm in series [3], in series [4] and in [5] was not below 70% throughout. The chromatographic logP in [6] amounted to 2.16; in series [7] it was 3.16.

Consider `CCC(C)SC(C)c1cccc(Nc2ncc(Cl)c(NC3CC3)n2)c1` (stereo not drawn) [Example 133], for which the pest or weed control at 100 ppm in series [1] and in series [2] was not below 70% in each case. Moreover, the pest or weed control at 500 ppm in [3], in series [4] and in series [5] was not below 70% each time. For the same compound, the values for the chromatographic logP in series [6] and in [7] were 3.79 and 5.08, respectively.

`COCCOc1cccc(Nc2ncc(C(F)(F)F)c(NC3CCC3)n2)c1` [Example 71]: in series [4], the pest or weed control at 500 ppm was not below 70%. The pest or weed control at 250 ppm in [8], in [10] and in series [9] was not below 80% in each case. The chromatographic logP in series [6] is 3.33.

`CCCS(=O)(=O)c1cccc(Nc2ncc(Cl)c(NC3CCC3)n2)c1` [Example 103]: the pest or weed control at 500 ppm in [4] is not below 70%. In addition, the pest or weed control at 250 ppm in [10] and in [9] was not below 80% each time. Moreover, the chromatographic logP came to 2.6 in [6] and 3.27 in series [7].

As for `COCCOc1ccc(Nc2ncc(C(F)(F)F)c(NC3CC3)n2)cc1` [Example 82], the pest or weed control at 500 ppm in series [4] and in series [5] was not below 70% throughout. Moreover, the pest or weed control at 250 ppm in series [8] and in series [9] was not below 80% throughout. Moreover, the chromatographic logP in series [6] was determined as 2.3; in [7], 3.06.

For the compound `CCS(=O)(=O)c1cccc(Nc2ncc(Br)c(NC3CCC3)n2)c1` [Example 111], the pest or weed control at 100 ppm in series [1] and in series [2] was not below 70% throughout. Also, the pest or weed control at 500 ppm in series [3] and in [4] was not below 70% each time. Also, the values for the chromatographic logP in series [6] and in series [7] were 2.36 and 3.06, respectively.

Turning to `CCCCSc1cccc(Nc2ncc(C(F)(F)F)c(NC3CC3)n2)c1` [Example 107], in [4], the pest or weed control at 500 ppm is not below 70%. Moreover, the pest or weed control at 250 ppm in [8], in series [10] and in series [9] was not below 80% each time. The compound also displayed a chromatographic logP in [6] of 4.94.

In the case of `CSC(C)c1cccc(Nc2ncc(Br)c(NC3CCC3)n2)c1` (stereo not drawn) [Example 13], the pest or weed control at 100 ppm in [1] and in series [2] was not below 70% each time. For the same compound, the pest or weed control at 500 ppm in series [3], in series [4] and in series [5] was not below 70% each time. Further, the pest or weed control at 250 ppm in series [8] is not below 80%. In series [6], this compound had a chromatographic logP of 3.07.

Take `COCc1cccc(Nc2ncc(Cl)c(NC3CCCC3)n2)c1` [Example 7]: the pest or weed control at 500 ppm in series [4] was not below 70%. The pest or weed control at 250 ppm in series [10] and in series [9] was not below 80% each time. Moreover, the chromatographic logP in series [6] was found to be 2.23.

With `CCSCc1cccc(Nc2ncc(Cl)c(NC(C)C)n2)c1` [Example 33], the pest or weed control at 100 ppm in series [1] and in series [2] was not below 70% throughout. Further, the pest or weed control at 500 ppm in series [3], in series [4] and in [5] was not below 70% throughout. Further, the chromatographic logP in series [6] stood at 2.61.

With `CCC1CC1Nc1nc(Nc2cccc(COC)c2)ncc1Cl` (stereo not drawn) [Example 108], the pest or weed control at 500 ppm in [4] was not below 70%. The pest or weed control at 250 ppm in series [8] and in series [9] was not below 80% in each case. The compound also had a chromatographic logP in [6] of 2.46.

For `CCS(=O)(=O)c1cccc(Nc2ncc(C(F)(F)F)c(NC3CCC3)n2)c1` [Example 118], the pest or weed control at 100 ppm in series [1] and in series [2] was not below 70% throughout. Moreover, the pest or weed control at 500 ppm in series [3], in series [4] and in series [5] was not below 70% each time. The chromatographic logP in [6] turned out to be 3.07; in series [7], 3.23.

Consider `CCC[S+]([O-])c1cccc(Nc2ncc(Cl)c(NC3CC3)n2)c1` (stereo not drawn) [Example 205], for which the pest or weed control at 100 ppm in [1] and in series [2] was not below 70% in each case. Further, the pest or weed control at 500 ppm in series [3], in [4] and in series [5] was not below 70% each time. The chromatographic logP in [6] turned out to be 1.8; in [7], 2.47.

Turning to `CSC(C)c1cccc(Nc2ncc(Cl)c(NC3CCC3)n2)c1` (stereo not drawn) [Example 14], the pest or weed control at 100 ppm in series [1] and in series [2] was not below 70% throughout. In addition, the pest or weed control at 500 ppm in series [4] and in series [5] was not below 70% each time. The pest or weed control at 250 ppm in series [8] and in series [10] was not below 80% throughout. The chromatographic logP in series [6] was found to be 2.82.

Take `CC[S+]([O-])c1cccc(Nc2ncc(C(F)(F)F)c(NC3CCC3)n2)c1` (stereo not drawn) [Example 119]: the pest or weed control at 100 ppm in series [1] and in series [2] was not below 70% in each case. Besides, the pest or weed control at 500 ppm in [3], in [4] and in series [5] was not below 70% in each case. In addition, the chromatographic logP in [6] is 2.61; in series [7] it was 2.81.

As for `COCCOc1cccc(Nc2ncc(Cl)c(NC3CCC3)n2)c1` [Example 66], the pest or weed control at 100 ppm in series [1] and in series [2] was not below 70% in each case. Also, the pest or weed control at 500 ppm in series [4] and in series [5] was not below 70% each time. Moreover, the pest or weed control at 250 ppm in [8] was not below 80%. Further, the chromatographic logP in series [6] came to 2.12.
